The source of these data is patent EP4772523A1, “D-PEPTIDE AND USE THEREOF” (HIROSAKI UNIVERSITY, priority 2023, dated 2025).

Where no end group is shown, it is not given here. [ ]: non-standard residue; d: D form.

The test system of data set [1] is PC3-Luc2-PSMA+/ANXA1-positive cells. The data set is described as follows: Cytotoxicity (Cell Counting Kit-8) to ANXA1-positive PC3 cells. It counts as cell-based, human. As to the method:
(§1) The cell viability was analyzed by Cell Counting Kit-8 (Dojindo), and the IC50 value was calculated (FIG. 40).
In general terms: Tetrazolium dyes change colour on reduction, which living cells bring about.

The subject of data set [2] is PSMA-negative/ANXA1-negative human prostate cancer cells PC3 and PSMA-positive/ANXA1-positive PC3 cells. The data set is described as follows: Anticancer treatment in back subcutaneous PC3 tumor model. The class given is in vivo, nude mice. As to the method:
1 × 10^6 PSMA-negative/ANXA1-negative human prostate cancer cells PC3 were inoculated into the left back of nude mice, and 1 × 10^6 PSMA-positive/ANXA1-positive PC3 cells were inoculated into the right back of the nude mice. […] As control, 0.919 mg/kg (22.975 ng vcMMAE/25 g mouse) of vcMMAE alone (molecular weight: 1316.6) was administered. The tumor size was monitored by measuring the average radiance (photon/sec/cm^2/sr) of the luciferase-expressing tumor after injection of luciferin (150 mg/mouse) using an IVIS system. After three courses of administration, the tumor size, body weight, pathological test, blood biochemical test, and blood cell count test values were evaluated (FIG. 41).

Data set [3] shares this test system. In words: Anticancer treatment in femur subcutaneous PC3 tumor model. It counts as in vivo, nude mice. The note with it: vcMMAE-dhp7 1.25 mg/kg or vcMMAE 0.919 mg/kg intraperitoneal every four days, three courses; femur tumors. Here is the method: As control, 0.919 mg/kg (22.975 ng vcMMAE/25 g mouse) of vcMMAE alone (molecular weight: 1316.6) was administered. The tumor size was monitored by measuring the average radiance (photon/sec/cm^2/sr) of the luciferase-expressing tumor after injection of luciferin (150 mg/mouse using an IVIS system. After three courses of administration, the average radiance of the luciferase-expressing tumor and the body weight were evaluated (FIG. 46).

For data set [4], the system named is PSMA-positive/ANXA1-positive PC3 cells. The data set is described as follows: Anticancer treatment in femur PC3 tumor model at same vcMMAE dose. As to conditions: four courses. The class given is in vivo, mice. Here is the method: 2 × 10^6 PSMA-positive/ANXA1-positive PC3 cells were inoculated into the right femur. […] As control, 1.25 mg/kg (31.25 ng vcMMAE/25 g mouse) of vcMMAE alone (molecular weight: 1316.6) was administered. The tumor size was monitored by measuring the average radiance (photon/sec/cm^2/sr) of the luciferase-expressing tumor after injection of luciferin (150 mg/mouse using an IVIS system. After four courses of administration, the average radiance of the luciferase-expressing tumor and the body weight were evaluated (FIG. 48).

Data set [5] concerns PC3-Luc2-PSMA-/ANXA1-negative cells. The data set is described as follows: Cytotoxicity (Cell Counting Kit-8) to ANXA1-negative PC3 cells. The class given is cell-based, human. As to conditions: 37°C for 24 hours; cell viability by Cell Counting Kit-8. Here is the method:
as §1

Data set [6] has as its system PC3-PSMA+ and PC3-PSMA- cells. In words: Uptake of ^10BSH in PC3 cells by immunofluorescent staining (Val-Cit conjugate). It counts as cell-based, human. Here is the method: (§2) Uptake of ^10BSH-vc-dhp7 in cancer cells was examined. 330 µg of ^10BSH-vc-dhp7, 403.6 µg of […](EMCS-^10BSH)RR (IF7-^10BSH (a compound described in WO2019244954)) (SEQ ID NO: 40 ([…])), or 50 µg of ^10BSH was added to PC3-PSMA+ and PC3-PSMA- cells seeded in a 3.5 cm culture dish (ib81156) manufactured by ibidi. 24 hours later, the cells were washed with PBS three times and then fixed with 4% PFA. Each peptide-boron compound was prepared to have a boron concentration that allows 50 µg of ^10BSH to be finally added. After blocking with 3% BSA BD PhosFlow perm/wash buffer I (BD557885), 3% BSA BD PhosFlow perm/wash buffer I containing 1 µg/ml of the rabbit anti-^10BSH polyclonal antibody #52 was reacted at room temperature for one hour with ^10BSH taken up into the cells. After washing with PBS three times, it was reacted at room temperature for one hour with an APC-labeled anti-mouse IgG antibody (diluted 1000-fold) to detect the rabbit anti-^10BSH polyclonal antibody, and washed with PBS three times. Then, intracellular uptake of […], IF7-^10BSH, or ^10BSH in each cancer cell was examined by a fluorescence microscope (Keyence BZ9000) (FIGS. 27 and 28).

Data set [7] concerns PC3, SAS, and MG-63 cells. In words: Uptake of ^10BSH in PC3, SAS and MG-63 cells by immunofluorescent staining. It counts as cell-based, human. The note with it: compared with non-addition group. Here is the method:
as §2

A short description of data set [8]: State of dissolution in physiological saline at dosing concentration. It counts as physicochemical. The note with it: dosing solutions: ^10BSH 1.25 mg/25 g mouse, ^10BSH-vc-dhp7 8.25 mg/25 g mouse, IF7-^10BSH 10.08 mg/25 g mouse. The text has this:
Thus, it was shown that ^10BSH-vc-dhp7 is more soluble and more flexible in designing the dosage form than IF7-^10BSH.

For data set [9], the system named is human prostate cancer cells PC3-PSMA-/ANXA1-. The data set is described as follows: BNCT in ANXA1-negative prostate cancer model. The class given is in vivo, nude mice. The note with it: ^10BSH 50 mg/kg or conjugate 330 mg/kg intraperitoneal, two irradiations. Here is the method:
(§3) Since it was found in Example 10 that the boron concentration in the tumor tissue by administration of ^10BSH-vc-dhp7 is sufficient for the antitumor effect of neutron capture therapy (BNCT), boron neutron capture therapy by EMCS-^10BSH-vc-dhp7 was attempted in ANXA1-negative human prostate cancer and ANXA 1-positive head and neck cancer models. […] Starting from 24 hours after the administration, the tumor area was irradiated with thermal neutrons at 20 MeV 100 mA for 60 minutes using an accelerator manufactured by Sumitomo Heavy Industries (dose: 1.63 × 10^12/cm^2, average 0.23 Gy). One week after the irradiation, second BNCT treatment was performed.
(§4) Irradiation with thermal neutrons was then performed. One week after the second irradiation, mice of each group were sacrificed. The tumor size and the tumor weight were measured, and pathological analysis of the resected tissue was performed to verify the antitumor effect. The tumor volume was measured from the start of administration until sacrifice by the calculation formula: V = long axis × short axis × short axis/2) (FIGS. 38 and 39).

Data set [10] has as its system human head and neck cancer cells SAS. In words: BNCT in ANXA1-positive head and neck cancer model. It counts as in vivo, nude mice. As to the method: as §3, §4

Turning to c(vcMMAE)-hpnevrs [vcMMAE-dhp7], the IC50 value is 122.7 ng in [1] (37°C for 24 hours, cell viability by Cell Counting Kit-8) and 204.5 ng in [5]. The “in-vitro sensitivity of Anxa1-positive cells relative to ANXA1-negative cells” value in [1] (PC3 cells) was “twice”. The “average radiance of luciferase-expressing tumor” value in data set [2] (1.25 mg/kg intraperitoneal every four days, three courses, back subcutaneous tumors) is reported as “almost completely reduced”; in data set [3] it was “reduced similarly over the three courses of treatment”; in data set [4] (vcMMAE-dhp7 2.14 mg/kg or vcMMAE 1.25 mg/kg intraperitoneal every four days) it was “markedly reduced”. Also, the “appearance and HE staining of resected tumors” value in [2] (in contrast to vcMMAE alone administration group) was “marked necrotic change and fewer residual tumors were observed”. For the same substance, in data set [2] (versus vcMMAE treatment group), the “CD31-positive vessel density in the residual tumors” value was “statistically significantly reduced”. Further, in data set [4], the “resected tumor weights compared with vcMMAE treatment group” value was “markedly smaller”.
On to “EMCS-^10BSH-val-cit-hpnevrs ([dH][dP][dN][dE][dV][dR][dS]; not fully specified (N-terminus); printed as EMCS-^10BSH-val-cit-hpnevrs) [^10BSH-vc-dhp7]”, for which the “efficiency of intracellular intake of ^10BSH” value in data set [6] (ANXA1-positive PC3 cells, versus IF7-^10BSH and ^10BSH treatment groups) is on record as “statistically significantly higher”. In addition, the “uptake in PSMA-negative cells compared with PSMA-positive cells” value in data set [6] (PSMA-negative cells expressing less ANXA1 on the cell surface) is “took up ^10BSH-vc-dhp7 less than the PSMA-positive cells did”. Moreover, the “intracellular uptake of ^10BSH (fluorescence)” value in data set [6] (amount equal to 50 µg of ^10BSH, 24 hours, compared with ^10BSH) is listed as “more dotted intracellular fluorescence was observed”. The “intracellular intake of ^10BSH” value in data set [7] is “statistically significant intracellular intake of ^10BSH in all cells”. In addition, the “state in physiological saline” value in data set [8] is recorded as “in a dissolved state”. Also, in data set [9], the “tumor reduction effect, BNCT treatment group” value was “no tumor reduction effect was observed”. In addition, the “tumor growth suppressing effect, BNCT treatment group” value in [10] (ANXA1-positive head and neck cancer model, 330 mg/kg intraperitoneal, starting immediately after the first BNCT) was “tumor growth suppressing effect more remarkable than that in the ^10BSH and BNCT treatment group”. In addition, in data set [10] (one week after the second irradiation), the “tumor volume compared with ^10BSH and BNCT treatment group” value is given as “reduced tumor volume”.
